What was measured:
[1] = molecular target: T1, Alpha-1A adrenergic receptor (Rattus norvegicus, UniProt P43140); experiment: DRUGMATRIX: Alpha-1A adrenergic receptor radioligand binding (ligand: prazosin); format: cell membranes, Wistar, Submaxillary gland, Membrane; conditions: Not Active = under 50% inhibition at 10 µM
T1 sequence (P43140 whole entry): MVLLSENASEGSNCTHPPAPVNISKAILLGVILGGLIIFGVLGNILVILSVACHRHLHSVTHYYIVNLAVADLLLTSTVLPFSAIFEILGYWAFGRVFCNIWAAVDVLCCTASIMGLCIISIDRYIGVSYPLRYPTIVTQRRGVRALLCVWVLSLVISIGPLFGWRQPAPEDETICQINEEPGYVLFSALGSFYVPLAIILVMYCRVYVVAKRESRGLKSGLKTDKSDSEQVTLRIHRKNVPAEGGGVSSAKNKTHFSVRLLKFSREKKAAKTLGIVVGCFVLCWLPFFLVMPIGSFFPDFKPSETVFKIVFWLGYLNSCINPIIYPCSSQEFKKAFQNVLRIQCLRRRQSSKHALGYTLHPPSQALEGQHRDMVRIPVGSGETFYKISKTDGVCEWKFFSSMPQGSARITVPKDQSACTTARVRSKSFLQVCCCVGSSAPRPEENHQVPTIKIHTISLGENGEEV

[2] = molecular target: T2, Vasoactive intestinal polypeptide receptor 1 (Homo sapiens, UniProt P32241); format: cell membranes, Membrane; conditions: ht-29; also: in other assays of this panel Not Active means under 50% inhibition at 10 µM
T2 sequence (P32241 whole entry): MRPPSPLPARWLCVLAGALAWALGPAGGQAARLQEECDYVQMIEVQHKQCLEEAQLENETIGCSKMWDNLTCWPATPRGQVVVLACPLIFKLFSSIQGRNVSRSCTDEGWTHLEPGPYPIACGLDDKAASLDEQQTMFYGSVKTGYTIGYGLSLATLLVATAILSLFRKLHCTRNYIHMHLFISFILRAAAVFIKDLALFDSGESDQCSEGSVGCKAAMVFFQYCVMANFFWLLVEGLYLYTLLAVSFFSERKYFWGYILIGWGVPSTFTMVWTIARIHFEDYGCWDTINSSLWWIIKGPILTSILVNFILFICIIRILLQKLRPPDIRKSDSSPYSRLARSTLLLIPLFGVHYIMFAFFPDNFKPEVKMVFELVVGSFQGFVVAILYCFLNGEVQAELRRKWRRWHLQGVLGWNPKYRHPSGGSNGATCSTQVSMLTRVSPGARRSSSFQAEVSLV

[3] = molecular target: Prostaglandin G/H synthase 1 (Homo sapiens, UniProt P23219); experiment: biochemical; format: tissue-based, Platelet; conditions: platelet;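 also: inhibition of COX-1 enzyme activity, with arachidonic acid supplied as substrate; in other assays of this panel Not Active means under 50% inhibition at 10 µM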
Nitric oxide synthase 1 = Nitric oxide synthase 1 (Rattus norvegicus, UniProt P29476); format: tissue-based, Cerebellum; also: in other assays of this panel Not Active means under 50% inhibition at 10 µM
Caspase-1 = molecular target: T3, Caspase-1 (Homo sapiens, UniProt P29466); set-up: species or system Escherichia coli;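 also: Caspase-1 enzyme inhibition assay with a peptide substrate; in other assays of this panel Not Active means under 50% inhibition at 10 µM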
T3 sequence (P29466 whole entry): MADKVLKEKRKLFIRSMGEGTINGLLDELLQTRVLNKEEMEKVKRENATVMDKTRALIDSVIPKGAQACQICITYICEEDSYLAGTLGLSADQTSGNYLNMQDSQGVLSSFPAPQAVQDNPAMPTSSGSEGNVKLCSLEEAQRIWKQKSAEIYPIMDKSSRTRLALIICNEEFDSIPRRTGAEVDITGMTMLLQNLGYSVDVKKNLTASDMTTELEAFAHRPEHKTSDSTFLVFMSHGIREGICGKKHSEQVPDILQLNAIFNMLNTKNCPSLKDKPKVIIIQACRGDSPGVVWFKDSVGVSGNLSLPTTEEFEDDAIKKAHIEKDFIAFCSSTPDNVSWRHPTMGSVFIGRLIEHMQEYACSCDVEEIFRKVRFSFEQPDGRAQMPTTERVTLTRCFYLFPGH

Adenosine receptor A2a = Adenosine receptor A2a (Homo sapiens, UniProt P29274); experiment: DRUGMATRIX: Adenosine A2A radioligand binding (ligand: […]); format: cell membranes, HEK293, Membrane; conditions: hek293; Not Active = under 50% inhibition at 10 µM
Cytochrome P450 2E1 = Cytochrome P450 2E1 (Homo sapiens, UniProt P05181); conditions: bti-tn-5b1-4; also: in other assays of this panel Not Active means under 50% inhibition at 10 µM
Sequence of Cytochrome P450 2E1 (P05181 whole entry): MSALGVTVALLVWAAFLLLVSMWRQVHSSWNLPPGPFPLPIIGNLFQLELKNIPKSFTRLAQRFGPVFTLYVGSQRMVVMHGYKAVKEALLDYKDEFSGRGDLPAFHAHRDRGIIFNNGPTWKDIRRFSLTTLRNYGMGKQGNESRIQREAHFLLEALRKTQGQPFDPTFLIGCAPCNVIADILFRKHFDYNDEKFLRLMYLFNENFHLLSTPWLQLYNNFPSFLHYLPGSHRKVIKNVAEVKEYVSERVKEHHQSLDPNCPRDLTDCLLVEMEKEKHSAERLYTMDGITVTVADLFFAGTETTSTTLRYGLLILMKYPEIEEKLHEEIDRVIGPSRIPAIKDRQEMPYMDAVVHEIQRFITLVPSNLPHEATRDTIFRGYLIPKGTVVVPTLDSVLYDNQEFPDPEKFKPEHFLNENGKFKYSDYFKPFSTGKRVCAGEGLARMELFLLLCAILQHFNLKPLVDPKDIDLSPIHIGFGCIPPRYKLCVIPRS

Sequence of Prostaglandin G/H synthase 1 (P23219 whole entry): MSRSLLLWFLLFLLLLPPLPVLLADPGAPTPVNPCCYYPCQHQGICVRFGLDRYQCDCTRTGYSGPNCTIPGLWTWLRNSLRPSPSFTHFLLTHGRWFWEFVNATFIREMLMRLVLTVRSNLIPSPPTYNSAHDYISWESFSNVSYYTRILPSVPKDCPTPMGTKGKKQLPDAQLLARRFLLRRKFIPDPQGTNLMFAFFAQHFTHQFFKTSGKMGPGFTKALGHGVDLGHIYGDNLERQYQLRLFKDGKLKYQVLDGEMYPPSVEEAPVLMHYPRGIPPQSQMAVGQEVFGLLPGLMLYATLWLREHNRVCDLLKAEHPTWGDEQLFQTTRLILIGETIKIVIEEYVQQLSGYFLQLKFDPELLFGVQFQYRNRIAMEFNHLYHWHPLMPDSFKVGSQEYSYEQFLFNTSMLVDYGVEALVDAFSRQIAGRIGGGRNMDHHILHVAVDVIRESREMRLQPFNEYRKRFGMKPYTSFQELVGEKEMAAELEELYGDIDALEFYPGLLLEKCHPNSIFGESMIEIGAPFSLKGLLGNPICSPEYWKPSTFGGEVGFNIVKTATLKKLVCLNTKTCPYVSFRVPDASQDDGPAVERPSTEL
Sequence of Adenosine receptor A2a (P29274 whole entry): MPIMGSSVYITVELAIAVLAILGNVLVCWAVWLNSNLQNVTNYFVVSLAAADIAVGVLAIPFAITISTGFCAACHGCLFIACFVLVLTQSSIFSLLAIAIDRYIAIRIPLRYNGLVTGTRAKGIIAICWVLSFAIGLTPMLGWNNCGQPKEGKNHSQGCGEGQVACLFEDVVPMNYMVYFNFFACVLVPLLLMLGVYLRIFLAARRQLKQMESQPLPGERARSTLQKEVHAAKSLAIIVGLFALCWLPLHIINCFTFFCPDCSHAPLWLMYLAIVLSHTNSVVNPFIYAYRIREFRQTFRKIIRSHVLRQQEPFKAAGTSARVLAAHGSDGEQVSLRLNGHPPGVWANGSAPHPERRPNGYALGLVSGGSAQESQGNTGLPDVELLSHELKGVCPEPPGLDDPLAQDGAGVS
Sequence of Nitric oxide synthase 1 (P29476 whole entry): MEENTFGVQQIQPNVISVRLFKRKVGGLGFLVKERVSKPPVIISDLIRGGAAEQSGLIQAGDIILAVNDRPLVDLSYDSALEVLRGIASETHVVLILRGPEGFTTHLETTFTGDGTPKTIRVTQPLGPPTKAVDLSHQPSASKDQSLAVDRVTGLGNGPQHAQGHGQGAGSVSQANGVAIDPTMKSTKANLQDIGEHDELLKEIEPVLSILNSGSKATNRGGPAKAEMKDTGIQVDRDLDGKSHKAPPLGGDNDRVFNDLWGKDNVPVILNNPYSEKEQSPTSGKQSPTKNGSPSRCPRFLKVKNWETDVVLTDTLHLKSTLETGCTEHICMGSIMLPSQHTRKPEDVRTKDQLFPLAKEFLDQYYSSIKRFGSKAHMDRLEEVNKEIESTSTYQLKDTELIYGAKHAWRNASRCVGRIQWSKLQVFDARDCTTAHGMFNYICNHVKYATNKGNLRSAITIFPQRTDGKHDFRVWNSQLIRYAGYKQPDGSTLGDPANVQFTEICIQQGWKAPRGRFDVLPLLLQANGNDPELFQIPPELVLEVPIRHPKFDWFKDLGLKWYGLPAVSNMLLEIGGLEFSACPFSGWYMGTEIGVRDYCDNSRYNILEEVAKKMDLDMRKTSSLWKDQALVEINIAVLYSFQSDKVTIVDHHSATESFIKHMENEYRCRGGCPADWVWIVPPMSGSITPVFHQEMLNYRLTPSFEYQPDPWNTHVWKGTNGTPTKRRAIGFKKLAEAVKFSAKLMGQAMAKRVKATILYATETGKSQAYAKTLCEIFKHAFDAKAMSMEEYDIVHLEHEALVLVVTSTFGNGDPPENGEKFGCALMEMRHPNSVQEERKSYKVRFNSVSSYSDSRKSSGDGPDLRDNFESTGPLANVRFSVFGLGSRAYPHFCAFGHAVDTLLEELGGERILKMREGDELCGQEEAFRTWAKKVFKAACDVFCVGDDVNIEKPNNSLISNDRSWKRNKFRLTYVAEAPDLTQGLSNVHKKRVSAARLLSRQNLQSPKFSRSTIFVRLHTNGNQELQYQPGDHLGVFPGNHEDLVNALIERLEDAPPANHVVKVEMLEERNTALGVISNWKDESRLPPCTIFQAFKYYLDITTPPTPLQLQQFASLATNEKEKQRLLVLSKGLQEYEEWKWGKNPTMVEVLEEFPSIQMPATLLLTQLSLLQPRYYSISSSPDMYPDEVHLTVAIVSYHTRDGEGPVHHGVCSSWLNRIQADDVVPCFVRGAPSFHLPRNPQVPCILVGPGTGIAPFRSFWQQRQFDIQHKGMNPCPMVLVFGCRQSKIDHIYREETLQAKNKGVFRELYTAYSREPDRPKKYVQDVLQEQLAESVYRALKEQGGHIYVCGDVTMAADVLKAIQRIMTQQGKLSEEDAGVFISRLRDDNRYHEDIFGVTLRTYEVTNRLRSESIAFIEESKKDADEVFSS

CCCNC(C)C(=O)Nc1ccccc1C (stereo not drawn) [PRILOCAINE]
Not Active: IC50 [1] | IC50 [2] | IC50 [3] | IC50 (Nitric oxide synthase 1) | IC50 (Caspase-1) | IC50 (Adenosine receptor A2a) | IC50 (Cytochrome P450 2E1) | Ki (Cytochrome P450 2E1)

NS(=O)(=O)c1cc(C2(O)NC(=O)c3ccccc32)ccc1Cl (stereo not drawn) [CHLORTHALIDONE]
Not Active: IC50 [1] | IC50 [2] | IC50 [3] | IC50 (Nitric oxide synthase 1) | IC50 (Caspase-1) | IC50 (Adenosine receptor A2a) | IC50 (Cytochrome P450 2E1) | Ki (Cytochrome P450 2E1)

CCN(CC)CCCC(C)Nc1c2ccc(Cl)cc2nc2ccc(OC)cc12 (stereo not drawn) [QUINACRINE]
Not Active: IC50 [1] | IC50 [2] | IC50 [3] | IC50 (Nitric oxide synthase 1) | IC50 (Caspase-1) | IC50 (Adenosine receptor A2a) | IC50 (Cytochrome P450 2E1) | Ki (Cytochrome P450 2E1)

CN1CCC(=C2c3ccccc3CC(=O)c3sccc32)CC1 [KETOTIFEN]
Not Active: IC50 [1] | IC50 [2] | IC50 [3] | IC50 (Nitric oxide synthase 1) | IC50 (Caspase-1) | IC50 (Adenosine receptor A2a) | IC50 (Cytochrome P450 2E1) | Ki (Cytochrome P450 2E1)

Cc1c(O)cccc1C(=O)N[C@@H](CSc1ccccc1)[C@H](O)CN1C[C@H]2CCCC[C@H]2C[C@H]1C(=O)NC(C)(C)C
Not Active: IC50 [1] | IC50 [2] | IC50 [3] | IC50 (Nitric oxide synthase 1) | IC50 (Caspase-1) | IC50 (Adenosine receptor A2a) | IC50 (Cytochrome P450 2E1) | Ki (Cytochrome P450 2E1)

Cn1c(=O)c2c(ncn2C)n(C)c1=O [CAFFEINE]
Not Active: IC50 [1] | IC50 [2] | IC50 [3] | IC50 (Nitric oxide synthase 1) | IC50 (Caspase-1) | IC50 (Cytochrome P450 2E1) | Ki (Cytochrome P450 2E1)

CC(C)NCC(O)c1ccccc1Cl (stereo not drawn) [CLORPRENALINE]
Not Active: IC50 [1] | IC50 [2] | IC50 [3] | IC50 (Nitric oxide synthase 1) | IC50 (Caspase-1) | IC50 (Adenosine receptor A2a) | IC50 (Cytochrome P450 2E1) | Ki (Cytochrome P450 2E1)

NC(=O)c1cccnc1 [NIACINAMIDE]
Not Active: IC50 [1] | IC50 [2] | IC50 [3] | IC50 (Nitric oxide synthase 1) | IC50 (Caspase-1) | IC50 (Adenosine receptor A2a) | IC50 (Cytochrome P450 2E1) | Ki (Cytochrome P450 2E1)

C[C@]12C=CC(=O)C=C1CC[C@H]1[C@@H]3C[C@@H](O)[C@](O)(C(=O)CO)[C@@]3(C)C[C@H](O)[C@@]12F [TRIAMCINOLONE]
Not Active: IC50 [1] | IC50 [2] | IC50 [3] | IC50 (Nitric oxide synthase 1) | IC50 (Caspase-1) | IC50 (Adenosine receptor A2a) | IC50 (Cytochrome P450 2E1) | Ki (Cytochrome P450 2E1)

CC(=O)OCC(=O)[C@@]1(O)CC[C@H]2[C@@H]3CCC4=CC(=O)CC[C@]4(C)[C@@]3(F)[C@@H](O)C[C@@]21C [FLUDROCORTISONE ACETATE]
Not Active: IC50 [1] | IC50 [2] | IC50 [3] | IC50 (Nitric oxide synthase 1) | IC50 (Caspase-1) | IC50 (Adenosine receptor A2a) | IC50 (Cytochrome P450 2E1) | Ki (Cytochrome P450 2E1)

CN(C)C(=O)Oc1cccc([N+](C)(C)C)c1.[Br-] [NEOSTIGMINE BROMIDE]
Not Active: IC50 [1] | IC50 [2] | IC50 [3] | IC50 (Nitric oxide synthase 1) | IC50 (Caspase-1) | IC50 (Adenosine receptor A2a) | IC50 (Cytochrome P450 2E1) | Ki (Cytochrome P450 2E1)

C[C@]12CC[C@@H]3c4ccc(O)cc4CC[C@H]3[C@@H]1C[C@@H](O)[C@@H]2O [ESTRIOL]
Not Active: IC50 [1] | IC50 [2] | IC50 [3] | IC50 (Nitric oxide synthase 1) | IC50 (Caspase-1) | IC50 (Adenosine receptor A2a) | IC50 (Cytochrome P450 2E1) | Ki (Cytochrome P450 2E1)

CCN(CC)CCNC(=O)c1ccc(N)cc1 [PROCAINAMIDE]
Not Active: IC50 [1] | IC50 [2] | IC50 [3] | IC50 (Nitric oxide synthase 1) | IC50 (Caspase-1) | IC50 (Adenosine receptor A2a) | IC50 (Cytochrome P450 2E1) | Ki (Cytochrome P450 2E1)
